Legend:
[1] = biological target: envelope protein of HIV strain JRCSF with N43D (HIV strain JRCSF) (UniProt P20871); experiment: cell-based or functional assay
[2] = biological target: envelope protein of HIV strain JRCSF with V38A (HIV strain JRCSF) (UniProt P20871); experiment: cell-based or functional assay
[3] = biological target: envelope protein of HIV strain JRCSF (WT) (HIV strain JRCSF) (UniProt P20871); experiment: cell-based or functional assay
[4] = biological target: envelope protein of HIV strain JRCSF with G36D (HIV strain JRCSF) (UniProt P20871); experiment: cell-based or functional assay
[5] = tested on: T-20-resistant JRCSF envelope variant V38A reporter virus; assay type: cell-based, HIV
Source text: (§1) In addition, three single amino acid substitutions, G36D, V38A and N43D, known to confer T-20 resistance for HIV were introduced into the JRCSF open reading frame by site-directed mutagenesis (QuikChange II kit, Stratagene, La Jolla, Calif.), thereby generating three T-20-resistant HIV envelope protein expression vectors called […], V38A and N43D.
(§2) HIV reporter viruses for purposes of this experiment were constructed from: (1) the JRCSF WT envelope protein vector, (2) the T-20-resistant envelope protein variants G36D, V38A, or N43D generated in Example 4; or (3) the patient derived HIV envelope protein population of vectors from KJM (Day 1) or KJM (Week9) generated in Example 5. The reporter viruses were produced by co-transfecting the human embryonic kidney cell line HEK293FT (Invitrogen, Carlsbad, Calif.) with the envelope vectors described above and an envelope-deficient proviral DNA encoding a luciferase reporter gene. The cells were propagated in Dulbecco's Modified Eagle Medium (Invitrogen, Carlsbad, Calif.) supplemented with 10% fetal bovine serum (Invitrogen, Carlsbad, Calif.). Transfections were performed using Lipofectamine 2000 (Invitrogen, Carlsbad, Calif.). Culture supernatants were harvested 48 hours post-transfection and filtered through a 0.45 micron filter prior to infecting target cells.
(§3) Viral infections were carried out in a human malignant glioma (U87) target cell expressing the human CD4 receptor and the human CCR5 chemokine receptor. Target cells were seeded into 96-well plates at a density of 3000 cells/well in Dulbecco's Modified Eagle Medium (Invitrogen, Carlsbad, Calif.) supplemented with 10% fetal bovine serum (Invitrogen. Carlsbad, Calif.) and cultured for […]. Target cells were then exposed to the virus generated in Example 6 mixed with varying concentrations of the entry inhibitors T-20 or an anti-CD4 MAb in a final volume of 40-80 microliters. Infection was triggered by centrifugation of the 96-well plates at 1200*g for 1.5-2.0 hours at 25° C. (i.e. spinoculation). After spinoculation, culture medium was added to a final volume of […] per well and the infected cultures were incubated for 3 days at 37° C. After 3 days the level of luciferase expressed in target cells was measured using a luciferase reporter gene assay reagent (Promega, Madison, Wis.), as described by the manufacturer.
(§4) Dose-response curves for the inhibition of luciferase expression by entry inhibitors were derived by fitting the luciferase data with a four-parameter logistic using Origin 7 Client software (OriginLab, Northampton, Mass.). Each dose-response experiment comprised a nine point concentration curve plus untreated controls, all assayed in triplicate wells (raw data not shown). For each EC50 determination, the results of three or more independent experiments were used to calculate the average EC50 and standard error values.

[6] = tested on: T-20-resistant JRCSF envelope variant N43D reporter virus; assay type: cell-based, HIV
Source text: as §1, §2, §3, §4

[7] = tested on: T-20-resistant JRCSF envelope variant G36D reporter virus; assay type: cell-based, HIV
Source text: as §1, §2, §3, §4

[8] = tested on: patient-derived envelope population KJM (day 1) reporter virus; assay type: cell-based, HIV; conditions: KJM D1 virus
Source text: (§5) HIV RNA was extracted from patient serum using QIAamp isolation kits (Qiagen, Hilden. Germany) and used to generate cDNA with random hexamer primers (SuperScript First Strand Synthesis System for RT-PCR, Invitrogen, Carlsbad, Calif.). HIV envelope protein open reading frame sequences were specifically amplified using a nested PCR procedure with outer PCR primers: […]
(§6) which initiate priming 239 bases upstream and 349 bases downstream of the envelope open reading frame, respectively. The inner PCR primers were the same primers used for directional cloning of the envelope sequence populations into the pCI-neo vector, as described in Example 4. The resulting PCR products represent a population of envelope sequences from HIV viruses present in two patient samples, KJM (day 1) and KJM (week 9).
as §2, §3, §4

[9] = tested on: patient-derived envelope population KJM (week 9) reporter virus; assay type: cell-based, HIV; conditions: KJM W9 virus
Source text: as §5, §6, §2, §3, §4

[10] = tested on: JRCSF WT envelope reporter virus; assay type: cell-based, HIV
Source text: A DNA expression vector comprising the envelope protein of HIV strain JRCSF was constructed using a commercially available pCI-neo vector (Promega, Madison, Wis.). JRCSF is a primary isolate obtained from an HIV patient which was deposited with the NIH AIDS Research & Reference Reagent Program (Cat. No. 2708). The JRCSF envelope open reading frame was amplified by standard PCR using the following primers: […]
These primers initiate priming at codon 2 of the envelope open reading frame and immediately downstream of the envelope termination codon, respectively. They contain restriction enzymes recognition sequences suitable for directional cloning into the pCI-neo vector. This JRCSF envelope protein expression vector was used in Example 6 below as the WT control. […]
Viral infections were carried out in a human malignant glioma (U87) target cell expressing the human CD4 receptor and the human CCR5 chemokine receptor. […] After 3 days the level of luciferase expressed in target cells was measured using a luciferase reporter gene assay reagent (Promega, Madison, Wis.), as described by the manufacturer. […]

[11] = average +/- standard error, 4 determinations

## T-20 (peptide)
[1]
  Fold Change (EC50MUT/EC50WT JRCSF): 22 fold
  PMI: 96%
[2]
  Fold Change (EC50MUT/EC50WT JRCSF): 32 fold
  PMI: 91%
[3]
  PMI: 98%
[4]
  Fold Change (EC50MUT/EC50WT JRCSF): 11 fold
  PMI: 99%

## enfuvirtide
[5]
  PMI: 91 ± 8.9
[5]; EC50MUT/EC50WT JRCSF
  Fold Change: 32
[5]; [11]
  EC50: 0.41 ± 0.21 µg/mL
[6]
  PMI: 96 ± 3.4
[6]; EC50MUT/EC50WT JRCSF
  Fold Change: 22
[6]; [11]
  EC50: 0.28 ± 0.08 µg/mL
[7]
  PMI: 99 ± 1.5
[7]; EC50MUT/EC50WT JRCSF
  Fold Change: 11
[7]; [11]
  EC50: 0.14 ± 0.026 µg/mL
[8]
  PMI: 99 ± 1.3
[8]; [11]
  EC50: 0.0091 ± 0.003 µg/mL
[9]
  PMI: 100 ± 0.58
[9]; EC50W9/EC50D1
  Fold Change: 0.93
[9]; [11]
  EC50: 0.0085 ± 0.0027 µg/mL
[10]
  PMI: 98 ± 2.4
[10]; [11]
  EC50: 0.013 ± 0.0035 µg/mL

Reference: patent publication US20090053220A1, “METHODS AND COMPOSITIONS FOR THE INHIBITION OF HIV INFECTION OF T CELLS” (priority 2006, published 2009)
